Read-outs that look alike come from different tables or passages of the source.
Columns and labels:
Assay type in all cases: biochemical
PI3K (p110δ/p85α) = PI3K (p110δ/p85α) (Homo sapiens, UniProt O00329); test: PI3Kδ assay (ADP-Glo Kinase Assay); conditions: recombinant enzyme; IC50 (nM) or max inhibition (%) at 0.5 μM
Protocol: Compounds disclosed herein were tested for inhibition of PI3Kδ kinase activity using commercial ADP-Glo™ Kinase Assay (Promega Corporation) and following the manufacture's instruction. Briefly, recombinant PI3K (p110δ/p85α) enzyme, lipid kinase substrate and a serial dilution of compounds disclosed herein were incubated for 0.5 hr at room temperature. ATP was added to initiate the kinase reaction. After incubation for 1 hr at room temperature, ADP-Glo™ reagent was added to terminate the kinase reaction and deplete the remaining ATP. After incubation for 1 hr at room temperature, kinase detection reagent was added to simultaneously convert ADP to ATP and allow the newly synthesized ATP to be measured using a luciferase/luciferin reaction. After incubation for 0.5 hr at room temperature, the luminescence generated was measured on a PHERAstar FS plate reader (BMG LABTECH). The residual enzyme activity in presence of increasing concentrations of compounds was calculated based on the luminescence. The IC50 for each compound was derived from fitting the data to the four-parameter logistic equation by Graphpad Prism software.

PI3K (p110β/p85α) = PI3K (p110β/p85α) (Homo sapiens, UniProt P42338); test: PI3Kβ assay (ADP-Glo Kinase Assay)
Chain of PI3K (p110β/p85α) (P42338 whole entry): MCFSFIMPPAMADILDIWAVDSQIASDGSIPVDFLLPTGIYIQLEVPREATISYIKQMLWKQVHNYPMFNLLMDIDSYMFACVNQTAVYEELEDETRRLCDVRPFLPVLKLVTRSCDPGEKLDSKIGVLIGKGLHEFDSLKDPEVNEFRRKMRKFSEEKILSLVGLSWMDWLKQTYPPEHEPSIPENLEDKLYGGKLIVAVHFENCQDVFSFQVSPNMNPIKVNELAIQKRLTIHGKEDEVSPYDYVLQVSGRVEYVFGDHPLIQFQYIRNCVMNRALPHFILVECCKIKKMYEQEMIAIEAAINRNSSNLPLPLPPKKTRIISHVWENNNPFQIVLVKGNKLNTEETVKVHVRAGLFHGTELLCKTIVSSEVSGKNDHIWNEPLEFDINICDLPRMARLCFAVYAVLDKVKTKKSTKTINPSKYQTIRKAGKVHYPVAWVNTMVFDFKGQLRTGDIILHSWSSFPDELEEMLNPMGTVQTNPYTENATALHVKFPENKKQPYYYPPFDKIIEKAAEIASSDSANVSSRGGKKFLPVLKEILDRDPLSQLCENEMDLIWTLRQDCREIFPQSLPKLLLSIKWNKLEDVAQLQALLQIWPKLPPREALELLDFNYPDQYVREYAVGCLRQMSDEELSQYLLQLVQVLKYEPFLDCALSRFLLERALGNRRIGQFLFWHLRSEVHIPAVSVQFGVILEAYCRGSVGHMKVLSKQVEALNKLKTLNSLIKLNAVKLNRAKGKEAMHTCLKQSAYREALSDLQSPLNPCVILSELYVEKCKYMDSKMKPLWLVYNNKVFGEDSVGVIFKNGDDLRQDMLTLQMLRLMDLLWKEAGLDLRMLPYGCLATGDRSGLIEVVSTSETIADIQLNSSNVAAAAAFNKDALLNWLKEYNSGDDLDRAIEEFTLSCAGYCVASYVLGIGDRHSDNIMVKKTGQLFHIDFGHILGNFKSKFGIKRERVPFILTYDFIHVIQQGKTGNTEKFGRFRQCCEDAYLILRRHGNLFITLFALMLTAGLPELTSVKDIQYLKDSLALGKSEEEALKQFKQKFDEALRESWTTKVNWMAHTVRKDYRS
Chain of PI3K (p110β/p85α) (P27986 whole entry partner): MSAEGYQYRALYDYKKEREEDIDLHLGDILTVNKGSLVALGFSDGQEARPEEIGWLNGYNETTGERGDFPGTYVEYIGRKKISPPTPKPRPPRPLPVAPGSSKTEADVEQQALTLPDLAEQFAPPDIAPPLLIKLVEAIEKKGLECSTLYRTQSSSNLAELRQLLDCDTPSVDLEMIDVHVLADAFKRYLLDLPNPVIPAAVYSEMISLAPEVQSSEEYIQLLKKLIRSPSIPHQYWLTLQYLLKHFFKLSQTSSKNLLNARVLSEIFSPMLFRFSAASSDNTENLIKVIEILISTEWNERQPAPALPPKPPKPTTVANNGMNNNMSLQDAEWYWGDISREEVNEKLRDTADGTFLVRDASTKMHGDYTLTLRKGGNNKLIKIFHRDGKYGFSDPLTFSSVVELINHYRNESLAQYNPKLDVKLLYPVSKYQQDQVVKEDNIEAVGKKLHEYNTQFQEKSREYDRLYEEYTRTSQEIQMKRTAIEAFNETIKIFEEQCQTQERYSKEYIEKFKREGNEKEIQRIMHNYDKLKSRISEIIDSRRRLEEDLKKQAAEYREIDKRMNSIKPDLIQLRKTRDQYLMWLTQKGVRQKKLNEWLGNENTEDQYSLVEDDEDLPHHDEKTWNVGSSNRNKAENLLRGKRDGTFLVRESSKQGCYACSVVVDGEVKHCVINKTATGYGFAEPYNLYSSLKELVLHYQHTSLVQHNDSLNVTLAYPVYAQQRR

PI3K (p110α/p85α) = PI3K (p110α/p85α) (Homo sapiens, UniProt P42336); test: PI3Kα assay (ADP-Glo Kinase Assay); conditions: recombinant enzyme; IC50 (nM) or max inhibition (%) at 0.5 μM
Chain of PI3K (p110α/p85α) (P42336 whole entry): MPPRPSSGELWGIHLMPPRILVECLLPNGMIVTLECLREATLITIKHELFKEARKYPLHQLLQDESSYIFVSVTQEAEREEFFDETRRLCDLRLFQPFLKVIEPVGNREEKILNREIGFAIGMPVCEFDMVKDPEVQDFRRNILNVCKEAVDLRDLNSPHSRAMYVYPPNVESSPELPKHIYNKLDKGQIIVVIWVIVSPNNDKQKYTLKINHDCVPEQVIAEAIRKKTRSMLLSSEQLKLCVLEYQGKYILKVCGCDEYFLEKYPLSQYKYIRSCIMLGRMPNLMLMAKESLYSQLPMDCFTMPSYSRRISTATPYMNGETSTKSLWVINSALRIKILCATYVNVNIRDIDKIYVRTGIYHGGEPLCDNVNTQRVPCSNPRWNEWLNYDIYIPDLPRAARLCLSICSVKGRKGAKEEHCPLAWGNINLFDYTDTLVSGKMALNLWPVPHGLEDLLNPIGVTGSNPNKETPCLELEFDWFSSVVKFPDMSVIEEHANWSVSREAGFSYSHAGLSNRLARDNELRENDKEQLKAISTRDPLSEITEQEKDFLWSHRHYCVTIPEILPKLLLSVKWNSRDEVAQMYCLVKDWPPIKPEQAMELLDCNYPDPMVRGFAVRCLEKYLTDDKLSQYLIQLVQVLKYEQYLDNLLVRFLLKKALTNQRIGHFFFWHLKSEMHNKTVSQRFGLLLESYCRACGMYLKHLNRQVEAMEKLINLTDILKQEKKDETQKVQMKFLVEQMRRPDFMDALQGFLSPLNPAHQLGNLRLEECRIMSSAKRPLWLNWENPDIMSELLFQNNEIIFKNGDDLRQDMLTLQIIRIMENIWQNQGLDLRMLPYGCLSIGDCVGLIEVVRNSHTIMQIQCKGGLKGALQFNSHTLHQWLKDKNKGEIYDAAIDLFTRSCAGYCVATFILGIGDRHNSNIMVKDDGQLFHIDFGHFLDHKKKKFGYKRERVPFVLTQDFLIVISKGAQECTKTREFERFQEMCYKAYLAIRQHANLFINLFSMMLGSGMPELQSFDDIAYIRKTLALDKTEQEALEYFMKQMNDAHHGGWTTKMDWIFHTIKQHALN
Chain of PI3K (p110α/p85α) (P27986 whole entry partner): as the sequence (P27986 whole entry partner) above

PI3K (p110γ) = PI3K (p110γ) (Homo sapiens, UniProt P48736); test: PI3Kγ assay (ADP-Glo Kinase Assay); conditions: recombinant enzyme; IC50 (nM) or max inhibition (%) at 0.5 μM
Chain of PI3K (p110γ) (P48736 whole entry): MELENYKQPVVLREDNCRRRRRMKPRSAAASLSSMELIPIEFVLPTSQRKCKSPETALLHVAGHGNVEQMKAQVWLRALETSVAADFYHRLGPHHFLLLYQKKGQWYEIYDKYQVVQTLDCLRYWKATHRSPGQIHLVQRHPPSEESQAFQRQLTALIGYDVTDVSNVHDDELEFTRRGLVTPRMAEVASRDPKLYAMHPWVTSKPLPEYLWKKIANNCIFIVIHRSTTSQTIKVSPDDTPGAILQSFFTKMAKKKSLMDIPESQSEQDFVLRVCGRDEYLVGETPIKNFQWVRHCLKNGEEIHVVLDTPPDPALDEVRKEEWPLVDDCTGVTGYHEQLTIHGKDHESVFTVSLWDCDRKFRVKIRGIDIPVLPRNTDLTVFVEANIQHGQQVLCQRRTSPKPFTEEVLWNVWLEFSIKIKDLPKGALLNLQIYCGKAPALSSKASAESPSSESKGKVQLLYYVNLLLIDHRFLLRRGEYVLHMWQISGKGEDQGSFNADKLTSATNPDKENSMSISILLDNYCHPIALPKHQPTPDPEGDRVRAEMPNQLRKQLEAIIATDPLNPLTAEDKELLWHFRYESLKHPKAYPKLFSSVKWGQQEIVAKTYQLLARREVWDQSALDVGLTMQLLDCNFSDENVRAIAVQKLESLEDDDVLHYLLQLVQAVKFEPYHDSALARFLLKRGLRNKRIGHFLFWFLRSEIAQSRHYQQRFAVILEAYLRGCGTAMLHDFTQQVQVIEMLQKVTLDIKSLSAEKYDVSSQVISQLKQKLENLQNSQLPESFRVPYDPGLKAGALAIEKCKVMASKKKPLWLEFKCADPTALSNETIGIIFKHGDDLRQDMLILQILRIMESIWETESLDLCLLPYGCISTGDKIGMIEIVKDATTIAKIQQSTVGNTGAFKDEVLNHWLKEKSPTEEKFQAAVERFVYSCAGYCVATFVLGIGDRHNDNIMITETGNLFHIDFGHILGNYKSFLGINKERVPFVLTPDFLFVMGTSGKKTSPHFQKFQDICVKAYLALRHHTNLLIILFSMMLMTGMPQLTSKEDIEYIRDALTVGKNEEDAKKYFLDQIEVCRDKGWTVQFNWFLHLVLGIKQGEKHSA

[1] = read-out: Enzyme activity IC50 PI3Kβ

Chain of PI3K (p110δ/p85α) (O00329 whole entry): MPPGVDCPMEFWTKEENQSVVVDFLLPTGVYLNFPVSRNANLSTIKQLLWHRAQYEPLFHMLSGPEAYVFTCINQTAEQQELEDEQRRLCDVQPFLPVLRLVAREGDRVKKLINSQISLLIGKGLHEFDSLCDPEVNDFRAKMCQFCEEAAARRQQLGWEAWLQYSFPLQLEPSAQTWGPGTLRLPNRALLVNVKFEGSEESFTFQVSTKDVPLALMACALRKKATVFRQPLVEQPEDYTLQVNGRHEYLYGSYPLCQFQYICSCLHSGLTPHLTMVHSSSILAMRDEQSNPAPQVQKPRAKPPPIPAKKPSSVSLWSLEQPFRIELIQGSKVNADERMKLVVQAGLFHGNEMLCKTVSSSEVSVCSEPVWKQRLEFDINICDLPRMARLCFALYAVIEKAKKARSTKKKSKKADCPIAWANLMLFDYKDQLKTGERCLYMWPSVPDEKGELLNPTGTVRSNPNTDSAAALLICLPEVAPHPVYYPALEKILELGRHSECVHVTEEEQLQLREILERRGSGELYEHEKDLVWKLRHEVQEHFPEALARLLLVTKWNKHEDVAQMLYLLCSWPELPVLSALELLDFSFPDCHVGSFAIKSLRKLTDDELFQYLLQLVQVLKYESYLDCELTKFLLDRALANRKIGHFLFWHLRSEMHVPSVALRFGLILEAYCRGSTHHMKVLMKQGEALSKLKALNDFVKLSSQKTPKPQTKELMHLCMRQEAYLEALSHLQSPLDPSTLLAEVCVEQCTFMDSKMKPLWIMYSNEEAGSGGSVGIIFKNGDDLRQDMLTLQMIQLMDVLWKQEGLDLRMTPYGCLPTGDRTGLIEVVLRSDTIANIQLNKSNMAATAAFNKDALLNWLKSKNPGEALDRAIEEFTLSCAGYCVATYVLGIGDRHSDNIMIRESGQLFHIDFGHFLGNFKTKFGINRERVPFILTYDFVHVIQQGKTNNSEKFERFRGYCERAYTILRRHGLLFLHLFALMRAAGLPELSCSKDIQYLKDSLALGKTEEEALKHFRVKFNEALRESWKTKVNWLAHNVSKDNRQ
Chain of PI3K (p110δ/p85α) (P27986 whole entry partner): as the sequence (P27986 whole entry partner) above

Row | Compound | IC50 (PI3K (p110δ/p85α)) [nM] | IC50 (PI3K (p110β/p85α); [1]) [nM] | IC50 (PI3K (p110α/p85α)) [nM] | IC50 (PI3K (p110γ)) [nM] | IC50 (PI3K (p110β/p85α); recombinant enzyme, 2 hrs kinase reaction, IC50 (nM) or max inhibition (%) at 0.5 μM) [nM]
1 | Cc1nc([C@@H](C)c2cc(Cl)c(F)c(C(=O)NC[C@H]3CCCO3)c2OC(C)C)n2ccnc(N)c12 [Compound 31, 3-((S)-1-(8-amino-1-methylimidazo[1,5-a]pyrazin-3-yl)ethyl)-5-chloro-6-fluoro-2-isopropoxy-N-(((R)-tetrahydrofuran-2-yl)methyl)benzamide] | 3.1 | 16000 | 25000 | 6200 | –
2 | CO[C@H]1CCCN(C(=O)c2c(F)c(Cl)cc([C@H](C)c3nc(C)c4c(N)nccn34)c2OC(C)C)C1 [Compound 65, (3-((S)-1-(8-amino-1-methylimidazo[1,5-a]pyrazin-3-yl)ethyl)-5-chloro-6-fluoro-2-isopropoxyphenyl)((S)-3-methoxypiperidin-1-yl)methanone] | 2.9 | > 50000 | – | 6900 | –
3 | (S)-3-(1-(8-amino-1-methylimidazol[1,5-a]pyrazin-3-yl)ethyl)-5-chloro-6-fluoro-2-isopropoxy-N-(4-methoxyphenyl)benzamide [Compound 29] | 1.1 | – | 11000 | 2100 | 9900
4 | Cc1nc([C@@H](C)c2cc(Cl)c(F)c(C(=O)N[C@H](C)c3ccccc3)c2OC(C)C)n2ccnc(N)c12 [Compound 22, 3-((S)-1-(8-amino-1-methylimidazo[1,5-a]pyrazin-3-yl)ethyl)-5-chloro-6-fluoro-2-isopropoxy-N-((R)-1-phenylethyl)benzamide] | 3.7 | – | – | – | –
5 | Cc1nc([C@@H](C)c2cc(Cl)c(F)c(C(=O)Nc3ccc(F)cc3)c2OC(C)C)n2ccnc(N)c12 [Compound 18, (S)-3-(1-(8-amino-1-methylimidazo[1,5-a]pyrazin-3-yl)ethyl)-5-chloro-6-fluoro-N-(4-fluorophenyl)-2-isopropoxybenzamide] | 2.4 | 12000 | 19000 | 6500 | –
6 | Cc1nc(C(C)c2cc(Cl)c(F)c(C(=O)N[C@H]3CC[C@@H](O)C3)c2OC(C)C)n2ccnc(N)c12 (single isomer, unassigned) [Compound 14B] | 320 | – | – | – | –
7 | Cc1nc([C@@H](C)c2cc(Cl)c(F)c(C(=O)N3CCC[C@H](O)C3)c2OC(C)C)n2ccnc(N)c12 [Compound 20, (3-((S)-1-(8-amino-1-methylimidazo[1,5-a]pyrazin-3-yl)ethyl)-5-chloro-6-fluoro-2-isopropoxyphenyl)((S)-3-hydroxypiperidin-1-yl)methanone] | 2.1 | – | – | – | –
8 | Cc1nc([C@@H](C)c2cc(Cl)c(F)c(C(=O)N[C@@H]3CCCC[C@@H]3O)c2OC(C)C)n2ccnc(N)c12 [Compound 48, 3-((S)-1-(8-amino-1-methylimidazo[1,5-a]pyrazin-3-yl)ethyl)-5-chloro-6-fluoro-N-((1R,2S)-2-hydroxycyclohexyl)-2-isopropoxybenzamide] | 9.1 | – | – | – | –
9 | Cc1nc([C@@H](C)c2cc(Cl)c(F)c(C(=O)N[C@@H]3CCCC[C@H]3O)c2OC(C)C)n2ccnc(N)c12 [Compound 49, 3-((S)-1-(8-amino-1-methylimidazol[1,5-a]pyrazin-3-yl)ethyl)-5-chloro-6-fluoro-N-((1R,2R)-2-hydroxycyclohexyl)-2-isopropoxybenzamide] | 3.9 | – | – | – | –
10 | Cc1nc([C@@H](C)c2cc(Cl)c(F)c(C(=O)N[C@@H]3CCC[C@@H]3O)c2OC(C)C)n2ccnc(N)c12 [Compound 23, 3((S)-1-(8-amino-1-methylimidazo[1,5-a]pyrazin-3-yl)ethyl)-5-chloro-6-fluoro-N-((1R,2S)-2-hydroxycyclopentyl)-2-isopropoxybenzamide] | 9.9 | – | – | – | –
11 | Cc1nc(C(C)c2cc(Cl)c(F)c(C(=O)N3CCC(F)(F)CC3)c2OC(C)C)n2ccnc(N)c12 (single isomer, unassigned) [Compound 13B] | > 1000 | – | – | – | –
12 | Cc1nc([C@@H](C)c2cc(Cl)c(F)c(C(=O)N3C[C@@H](C)O[C@@H](C)C3)c2OC(C)C)n2ccnc(N)c12 [Compound 67, (3-((S)-1-(8-amino-1-methylimidazo[1,5-a]pyrazin-3-yl)ethyl)-5-chloro-6-fluoro-2-isopropoxyphenyl)((2R,6S)-2,6-dimethylmorpholino)methanone] | 8 | – | – | – | –
13 | Cc1nc(C(C)c2cc(Cl)c(F)c(C(=O)N3CCOCC3)c2OC(C)C)n2ccnc(N)c12 (single isomer, unassigned) [Compound 4B] | > 1000 | – | – | – | –

The next lines start with results.

Row | IC50 (PI3K (p110δ/p85α)) [nM] | IC50 (PI3K (p110β/p85α); [1]) [nM] | IC50 (PI3K (p110α/p85α)) [nM] | IC50 (PI3K (p110γ)) [nM] | Compound | IC50 (PI3K (p110β/p85α); recombinant enzyme, 2 hrs kinase reaction, IC50 (nM) or max inhibition (%) at 0.5 μM) [nM]
14 | 1.1 | 7400 | 38000 | 4200 | Cc1nc([C@@H](C)c2cc(Cl)c(F)c(C(=O)N[C@H]3C[C@@H](O)C3)c2OC(C)C)n2ccnc(N)c12 [Compound 63, 3-((S)-1-(8-amino-1-methylimidazo[1,5-a]pyrazin-3-yl)ethyl)-5-chloro-6-fluoro-N-((cis)-3-hydroxycyclobutyl)-2-isopropoxybenzamide] | –
15 | 6.8 | – | – | – | Cc1nc([C@@H](C)c2cc(Cl)c(F)c(C(=O)N[C@H](C)[C@@H](C)O)c2OC(C)C)n2ccnc(N)c12 [Compound 72, 3-((S)-1-(8-amino-1-methylimidazo[1,5-a]pyrazin-3-yl)ethyl)-5-chloro-6-fluoro-N-((2R,3R)-3-hydroxybutan-2-yl)-2-isopropoxybenzamide] | –
16 | 0.99 | 4900 | 20000 | 5500 | CCCNC(=O)c1c(F)c(Cl)cc([C@H](C)c2nc(C)c3c(N)nccn23)c1OC(C)C [Compound 41, (S)-3-(1-(8-amino-1-methylimidazo[1,5-a]pyrazin-3-yl)ethyl)-5-chloro-6-fluoro-2-isopropoxy-N-propylbenzamide] | –
17 | 2 | 6200 | 31000 | 7300 | Cc1nc(C(C)c2cc(Cl)c(F)c(C(=O)NC3CC3)c2OC(C)C)n2ccnc(N)c12 (stereo not shown) [Compound 11, 3-(1-(8-amino-1-methylimidazo[1,5-a]pyrazin-3-yl)ethyl)-5-chloro-N-cyclopropyl-6-fluoro-2-isopropoxybenzamide] | –
18 | 11 | – | – | – | Cc1nc([C@@H](C)c2cc(Cl)c(F)c(C(=O)NC3(CN(C)C)CC3)c2OC(C)C)n2ccnc(N)c12 [Compound 54, (S)-3-(1-(8-amino-1-methylimidazo[1,5-a]pyrazin-3-yl)ethyl)-5-chloro-N-(1-((dimethylamino)methyl)cyclopropyl)-6-fluoro-2-isopropoxybenzamide] | –
19 | 6.5 | – | – | – | Cc1nc([C@@H](C)c2cc(Cl)c(F)c(C(=O)N[C@]3(C)CC[C@@H](O)CC3)c2OC(C)C)n2ccnc(N)c12 [Compound 40, 3-((S)-1-(8-amino-1-methylimidazo[1,5-a]pyrazin-3-yl)ethyl)-5-chloro-6-fluoro-N-((1R,4S)-4-hydroxy-1-methylcyclohexyl)-2-isopropoxybenzamide] | –
20 | 3.2 | – | – | – | Cc1nc([C@@H](C)c2cc(Cl)c(F)c(C(=O)N(C)C)c2OC(C)C)n2ccnc(N)c12 [Compound 32, (S)-3-(1-(8-amino-1-methylimidazo[1,5-a]pyrazin-3-yl)ethyl)-5-chloro-6-fluoro-2-isopropoxy-N,N-dimethylbenzamide] | –
21 | – | 20000 | 21000 | 6300 | Cc1nc([C@@H](C)c2cc(Cl)c(F)c(C(=O)NC3(CO)CC3)c2OC(C)C)n2ccnc(N)c12 [Compound 5A] | –
22 | – | 16000 | 56000 | 10000 | Cc1nc(C(C)c2cc(Cl)c(F)c(C(=O)NC3(CO)CC3)c2OC(C)C)n2ccnc(N)c12 (stereo not shown) [Compound 5, 3-(1-(8-amino-1-methylimidazo[1,5-a]pyrazin-3-yl)ethyl)-5-chloro-6-fluoro-N-(1-(hydroxymethyl)cyclopropyl)-2-isopropoxybenzamide] | –
